From the NIST ThermoML archive (doi:10.1021/acs.jced.5b00385)

Settings: Liquid, Vibrating tube method

FCC(F)(F)F [1,1,1,2-tetrafluoroethane]
Settings	mass density [kg/m3]
283.46 K, 1000 kPa	1262.57
283.46 K, 5000 kPa	1279.58
283.47 K, 10000 kPa	1298.12
283.47 K, 20000 kPa	1329.18
283.47 K, 40000 kPa	1377.11
283.47 K, 60000 kPa	1414.44
283.47 K, 80000 kPa	1445.46
303.37 K, 10000 kPa	1236.85
303.37 K, 20000 kPa	1275.77
303.38 K, 1000 kPa	1188.07
303.38 K, 5000 kPa	1212.13
303.38 K, 40000 kPa	1332.36
303.38 K, 60000 kPa	1374.64
303.38 K, 80000 kPa	1408.98
323.15 K, 3000 kPa	1119.19
323.16 K, 5000 kPa	1136.38
323.16 K, 10000 kPa	1170.84
323.16 K, 20000 kPa	1220.65
323.16 K, 40000 kPa	1287.71
323.16 K, 60000 kPa	1335.49
323.16 K, 80000 kPa	1373.39
342.97 K, 3000 kPa	1014.76
342.97 K, 5000 kPa	1045.25
342.98 K, 10000 kPa	1097.42
342.98 K, 20000 kPa	1162.91
342.98 K, 40000 kPa	1242.75
342.98 K, 80000 kPa	1338.34
342.99 K, 60000 kPa	1296.65
362.68 K, 5000 kPa	922.4
362.68 K, 10000 kPa	1013.83
362.68 K, 20000 kPa	1102.6
362.68 K, 40000 kPa	1197.86
362.68 K, 60000 kPa	1258.47
362.68 K, 80000 kPa	1304.15

CCCCC(CC)COC(C)=O (stereo not drawn) [2-ethylhexyl acetate]
Settings	mass density [kg/m3]
283.45 K, 80000 kPa	925.84
283.45 K, 90000 kPa	930.33
283.45 K, 100000 kPa	934.63
283.46 K, 100 kPa	880.38
283.46 K, 1000 kPa	881.05
283.46 K, 40000 kPa	905.65
283.46 K, 50000 kPa	911.06
283.46 K, 60000 kPa	916.18
283.46 K, 70000 kPa	921.22
283.47 K, 3000 kPa	882.48
283.47 K, 5000 kPa	883.9
283.47 K, 30000 kPa	899.95
283.48 K, 10000 kPa	887.37
283.48 K, 15000 kPa	890.63
283.48 K, 20000 kPa	893.87
283.48 K, 25000 kPa	896.91
293.44 K, 1000 kPa	872.61
293.44 K, 3000 kPa	874.12
293.45 K, 5000 kPa	875.6
293.45 K, 10000 kPa	879.24
293.45 K, 15000 kPa	882.73
293.45 K, 20000 kPa	886.08
293.45 K, 25000 kPa	889.32
293.45 K, 30000 kPa	892.46
293.45 K, 40000 kPa	898.43
293.45 K, 60000 kPa	909.42
293.45 K, 70000 kPa	914.46
293.45 K, 80000 kPa	919.33
293.45 K, 100000 kPa	928.38
293.46 K, 100 kPa	871.89
293.46 K, 50000 kPa	904.07
293.46 K, 90000 kPa	923.91
303.38 K, 1000 kPa	863.7
303.39 K, 3000 kPa	865.32
303.39 K, 15000 kPa	874.36
303.39 K, 40000 kPa	890.82
303.4 K, 5000 kPa	866.89
303.4 K, 10000 kPa	870.7
303.4 K, 20000 kPa	877.88
303.4 K, 25000 kPa	881.31
303.4 K, 30000 kPa	884.55
303.4 K, 50000 kPa	896.67
303.4 K, 60000 kPa	902.22
303.4 K, 70000 kPa	907.5
303.4 K, 80000 kPa	912.5
303.4 K, 90000 kPa	917.28
303.41 K, 100 kPa	862.94
303.41 K, 100000 kPa	921.87
313.34 K, 100 kPa	854.53
313.34 K, 1000 kPa	855.28
313.34 K, 3000 kPa	857.04
313.34 K, 5000 kPa	858.73
313.34 K, 10000 kPa	862.77
313.34 K, 15000 kPa	866.66
313.34 K, 20000 kPa	870.34
313.34 K, 25000 kPa	873.92
313.34 K, 30000 kPa	877.34
313.34 K, 40000 kPa	883.88
313.34 K, 50000 kPa	889.98
313.34 K, 60000 kPa	895.7
313.34 K, 70000 kPa	901.14
313.34 K, 80000 kPa	906.27
313.34 K, 100000 kPa	915.93
313.35 K, 90000 kPa	911.19
323.15 K, 100 kPa	845.74
323.15 K, 50000 kPa	882.8
323.15 K, 60000 kPa	888.76
323.15 K, 70000 kPa	894.49
323.15 K, 80000 kPa	899.83
323.15 K, 90000 kPa	904.91
323.15 K, 100000 kPa	909.78
323.16 K, 1000 kPa	846.56
323.16 K, 3000 kPa	848.36
323.16 K, 5000 kPa	850.14
323.16 K, 10000 kPa	854.42
323.16 K, 25000 kPa	866.13
323.16 K, 30000 kPa	869.71
323.16 K, 40000 kPa	876.47
323.17 K, 15000 kPa	858.49
323.17 K, 20000 kPa	862.39
332.99 K, 100 kPa	836.98
333 K, 1000 kPa	837.85
333 K, 3000 kPa	839.78
333 K, 5000 kPa	841.66
333 K, 10000 kPa	846.16
333 K, 15000 kPa	850.47
333 K, 20000 kPa	854.55
333 K, 25000 kPa	858.45
333.01 K, 30000 kPa	862.21
333.01 K, 40000 kPa	869.27
333.01 K, 50000 kPa	875.85
333.01 K, 60000 kPa	882.02
333.01 K, 70000 kPa	888.07
333.01 K, 80000 kPa	893.58
333.01 K, 90000 kPa	898.82
333.01 K, 100000 kPa	903.81
342.95 K, 100 kPa	828.32
342.96 K, 1000 kPa	829.27
342.96 K, 3000 kPa	831.31
342.96 K, 5000 kPa	833.3
342.96 K, 10000 kPa	838.06
342.96 K, 15000 kPa	842.59
342.96 K, 20000 kPa	846.9
342.97 K, 25000 kPa	851
342.97 K, 30000 kPa	854.91
342.97 K, 40000 kPa	862.31
342.97 K, 50000 kPa	869.15
342.97 K, 60000 kPa	875.57
342.97 K, 70000 kPa	881.64
342.97 K, 80000 kPa	887.28
342.97 K, 90000 kPa	892.73
342.97 K, 100000 kPa	897.85
352.78 K, 100 kPa	819.64
352.79 K, 1000 kPa	820.65
352.79 K, 3000 kPa	822.83
352.79 K, 5000 kPa	824.93
352.79 K, 10000 kPa	830
352.79 K, 15000 kPa	834.75
352.79 K, 20000 kPa	839.27
352.79 K, 25000 kPa	843.56
352.79 K, 30000 kPa	847.66
352.79 K, 40000 kPa	855.34
352.79 K, 50000 kPa	862.46
352.79 K, 60000 kPa	869.08
352.79 K, 70000 kPa	875.42
352.79 K, 90000 kPa	886.84
352.79 K, 100000 kPa	892.14
352.8 K, 80000 kPa	881.29
362.64 K, 100 kPa	810.91
362.64 K, 1000 kPa	811.97
362.64 K, 3000 kPa	814.28
362.64 K, 5000 kPa	816.51
362.64 K, 10000 kPa	821.85
362.64 K, 15000 kPa	826.87
362.64 K, 20000 kPa	831.61
362.64 K, 25000 kPa	836.09
362.64 K, 30000 kPa	840.38
362.64 K, 50000 kPa	855.78
362.64 K, 60000 kPa	862.65
362.64 K, 70000 kPa	869.14
362.64 K, 80000 kPa	875.25
362.64 K, 90000 kPa	880.97
362.64 K, 100000 kPa	886.45
362.65 K, 40000 kPa	848.4
